Laboratory results published in ChEMBL document CHEMBL1201862, “PubChem BioAssay data set” (2004).
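Five compound concentrations were applied to cells in 96-well plates for 48 hours; endpoints were derived by simple linear interpolation of the resulting dose-response curve. GI50 = concentration required for 50% inhibition of growth.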 The source made the active and inactive calls. No stated cut-off is given here; in the data, active = GI50 up to about 1.1 µM and inactive = higher.

Tests used:
Assay in all cases: NCI-60 cell line screen, 48 h
A498 = test system: A498
ACHN = test system: ACHN
HCC 2998 = test system: HCC 2998
HCT-116 = test system: HCT-116
SK-MEL-28 = test system: SK-MEL-28
MDA-N = test system: MDA-N
Malme-3M = test system: Malme-3M
TK-10 = test system: TK-10
CCRF-CEM = test system: CCRF-CEM
OVCAR-8 = test system: OVCAR-8
BT-549 = test system: BT-549
NCI-H23 = test system: NCI-H23
SF-295 = test system: SF-295
SF-539 = test system: SF-539
OVCAR-5 = test system: OVCAR-5
RPMI-8226 = test system: RPMI-8226
KM12 = test system: KM12
UACC-62 = test system: UACC-62
COLO 205 = test system: COLO 205

| SMILES | GI50 (A498) | GI50 (ACHN) | GI50 (HCC 2998) | GI50 (HCT-116) | GI50 (SK-MEL-28) | GI50 (MDA-N) | GI50 (Malme-3M) | GI50 (TK-10) | GI50 (CCRF-CEM) | GI50 (OVCAR-8) | GI50 (BT-549) | GI50 (NCI-H23) | GI50 (SF-295) | GI50 (SF-539) | GI50 (OVCAR-5) | GI50 (RPMI-8226) | GI50 (KM12) | GI50 (UACC-62) | GI50 (COLO 205) |
| --- | --- | --- | --- | --- | --- | --- | --- | --- | --- | --- | --- | --- | --- | --- | --- | --- | --- | --- | --- |
| Nc1nccc(NCC2(CO)CCC2)n1 | > 100 µM (inactive) | > 100 µM (inactive) | > 100 µM (inactive) | > 100 µM (inactive) | > 100 µM (inactive) | > 100 µM (inactive) | > 100 µM (inactive) | 36.7 µM (inactive) | > 100 µM (inactive) | > 100 µM (inactive) | > 100 µM (inactive) | > 100 µM (inactive) | > 100 µM (inactive) | > 100 µM (inactive) | > 100 µM (inactive) | > 100 µM (inactive) | > 100 µM (inactive) | > 100 µM (inactive) | > 100 µM (inactive) |
| Cc1nc2ccccc2n1COC(Cn1ccnc1)c1ccc(Cl)cc1Cl (stereo unspecified) | > 100 µM (inactive) | 34.8 µM (inactive) | 76 µM (inactive) | 53.7 µM (inactive) | > 100 µM (inactive) | 48.8 µM (inactive) | > 100 µM (inactive) | 83.9 µM (inactive) | 88.9 µM (inactive) | 94 µM (inactive) | 33 µM (inactive) | 55.8 µM (inactive) | 71 µM (inactive) | > 100 µM (inactive) | > 100 µM (inactive) | 35.2 µM (inactive) | 71.4 µM (inactive) | 56.5 µM (inactive) | 39.3 µM (inactive) |
| COc1ccc(/N=C(/SS/C(=N/c2ccc(OC)cc2)c2ccc([N+](=O)[O-])o2)c2ccc([N+](=O)[O-])o2)cc1 | 12.4 µM (inactive) | 1.41 µM (inactive) | 1.32 µM (inactive) | 1.18 µM (inactive) | 2.49 µM (inactive) | 2.07 µM (inactive) | 2.02 µM (inactive) | 2.38 µM (inactive) | 2.08 µM (inactive) | 1.37 µM (inactive) | 1.54 µM (inactive) | 1.45 µM (inactive) | 2.16 µM (inactive) | 1.49 µM (inactive) | 2.2 µM (inactive) | 0.489 µM (active) | 1.14 µM (inactive) | 1.28 µM (inactive) | 1.92 µM (inactive) |
| CNc1c2c(c3nc4ccccc4c4c3c1N=C4)NCCC2=O [PLAKINIDINE A] | 2.67 µM (inactive) | 2.07 µM (inactive) | 5.08 µM (inactive) | 1.77 µM (inactive) | > 10 µM (inactive) | 7.35 µM (inactive) | 4.65 µM (inactive) | 8.51 µM (inactive) | 1.9 µM (inactive) | 2.38 µM (inactive) | 7.74 µM (inactive) | 7.13 µM (inactive) | 4.5 µM (inactive) | 3.9 µM (inactive) | 5.83 µM (inactive) | 2.57 µM (inactive) | 4.79 µM (inactive) | – | 2.82 µM (inactive) |
| O=C(c1ccc(Cl)cc1)N(C(=S)OC12CC3CC(CC(C3)C1)C2)c1ccccc1 | 64.7 µM (inactive) | 34.8 µM (inactive) | 31.6 µM (inactive) | 33.5 µM (inactive) | > 100 µM (inactive) | 49.5 µM (inactive) | 54.3 µM (inactive) | 37.1 µM (inactive) | 16.3 µM (inactive) | 39.2 µM (inactive) | 43.2 µM (inactive) | 35.6 µM (inactive) | 36.8 µM (inactive) | 30.7 µM (inactive) | 45.6 µM (inactive) | – | 39.1 µM (inactive) | 40.6 µM (inactive) | 16.8 µM (inactive) |
| COC(=O)c1cc2ccc(OC(C)=O)c(OC(C)=O)c2cn1 | 14 µM (inactive) | 17.1 µM (inactive) | 20.8 µM (inactive) | 17.3 µM (inactive) | 19 µM (inactive) | 1.5 µM (inactive) | 8.07 µM (inactive) | 20.6 µM (inactive) | 2.29 µM (inactive) | 7.64 µM (inactive) | > 10 µM (inactive) | 18 µM (inactive) | 4.95 µM (inactive) | 19.1 µM (inactive) | 18.7 µM (inactive) | 2.16 µM (inactive) | 18.7 µM (inactive) | 2.09 µM (inactive) | 18.7 µM (inactive) |
| C/C(=N\N=C(\N)SB(F)F)c1ccc2ccccc2c1 | > 100 µM (inactive) | > 100 µM (inactive) | > 100 µM (inactive) | > 100 µM (inactive) | > 100 µM (inactive) | > 100 µM (inactive) | > 100 µM (inactive) | > 100 µM (inactive) | 4.37 µM (inactive) | > 100 µM (inactive) | > 100 µM (inactive) | > 100 µM (inactive) | > 100 µM (inactive) | > 100 µM (inactive) | > 100 µM (inactive) | – | > 100 µM (inactive) | > 100 µM (inactive) | > 100 µM (inactive) |
| CC(C)C(N)(C(=O)O)c1ccccc1 (stereo unspecified) | > 100 µM (inactive) | > 100 µM (inactive) | > 100 µM (inactive) | > 100 µM (inactive) | > 100 µM (inactive) | > 100 µM (inactive) | > 100 µM (inactive) | > 100 µM (inactive) | > 100 µM (inactive) | > 100 µM (inactive) | > 100 µM (inactive) | > 100 µM (inactive) | > 100 µM (inactive) | – | > 100 µM (inactive) | > 100 µM (inactive) | > 100 µM (inactive) | > 100 µM (inactive) | > 100 µM (inactive) |
| COC(=O)C1OC(O[C@H]2CC[C@]3(C)[C@H]4CC=C5[C@@H]6CC(C)(C)CC[C@]6(C(=O)OC)CC[C@@]5(C)[C@]4(C)CC[C@H]3C2(C)C)C(O)C(O)C1O (stereo partly specified) | 19.8 µM (inactive) | 11.8 µM (inactive) | 7.76 µM (inactive) | 12.3 µM (inactive) | 18.5 µM (inactive) | 17 µM (inactive) | 21 µM (inactive) | – | 5.66 µM (inactive) | 13.6 µM (inactive) | 17.8 µM (inactive) | 11.9 µM (inactive) | 15.1 µM (inactive) | – | 14.6 µM (inactive) | 20.1 µM (inactive) | 7.52 µM (inactive) | 14.7 µM (inactive) | 16.1 µM (inactive) |
| COC(=O)c1cc(C)ccc1/C=C1\Cc2cccc(C)c2C1=O | 46.3 µM (inactive) | 38.7 µM (inactive) | 47.5 µM (inactive) | 18.1 µM (inactive) | 62.1 µM (inactive) | 11.1 µM (inactive) | 20.5 µM (inactive) | > 100 µM (inactive) | 12.3 µM (inactive) | 14.1 µM (inactive) | 17.6 µM (inactive) | > 100 µM (inactive) | 30.9 µM (inactive) | 67.3 µM (inactive) | 78.7 µM (inactive) | 28.8 µM (inactive) | 26.7 µM (inactive) | – | – |
| Cc1ccc(C2=Nc3c(c(C)nn3-c3ccccc3)N=C(C(=O)O)C2)cc1 | > 10 µM (inactive) | > 10 µM (inactive) | > 10 µM (inactive) | > 10 µM (inactive) | > 10 µM (inactive) | > 10 µM (inactive) | > 10 µM (inactive) | > 10 µM (inactive) | > 10 µM (inactive) | > 10 µM (inactive) | > 10 µM (inactive) | > 10 µM (inactive) | > 10 µM (inactive) | > 10 µM (inactive) | > 10 µM (inactive) | – | > 10 µM (inactive) | > 10 µM (inactive) | > 10 µM (inactive) |
| COC(=O)c1ccc(-n2c(C)nc(=O)c(-c3ccccc3)c2C)cc1 | > 100 µM (inactive) | > 100 µM (inactive) | > 100 µM (inactive) | > 100 µM (inactive) | > 100 µM (inactive) | > 10 µM (inactive) | > 100 µM (inactive) | > 100 µM (inactive) | > 100 µM (inactive) | > 100 µM (inactive) | > 100 µM (inactive) | > 100 µM (inactive) | > 100 µM (inactive) | 74 µM (inactive) | > 100 µM (inactive) | > 100 µM (inactive) | > 100 µM (inactive) | – | > 100 µM (inactive) |
| O=C(/C=C/c1ccc(/C=C/C(=O)c2ccc(O)cc2)cc1)c1ccc(O)cc1 | > 100 µM (inactive) | > 100 µM (inactive) | > 100 µM (inactive) | > 100 µM (inactive) | > 100 µM (inactive) | > 100 µM (inactive) | – | > 100 µM (inactive) | > 100 µM (inactive) | > 100 µM (inactive) | > 100 µM (inactive) | > 100 µM (inactive) | > 100 µM (inactive) | > 100 µM (inactive) | > 100 µM (inactive) | > 100 µM (inactive) | > 100 µM (inactive) | > 100 µM (inactive) | > 100 µM (inactive) |
| NP1(Oc2ccc(F)cc2)=NP(N)(Oc2ccc(F)cc2)=NP(Oc2ccc(F)cc2)(Oc2ccc(F)cc2)=N1 (stereo unspecified) | < 0.01 µM (active) | 3.32 µM (inactive) | 3.19 µM (inactive) | 4.58 µM (inactive) | 12.4 µM (inactive) | 6.47 µM (inactive) | 5.27 µM (inactive) | 2.77 µM (inactive) | 6.21 µM (inactive) | 3.5 µM (inactive) | 2.23 µM (inactive) | 11.2 µM (inactive) | 4.4 µM (inactive) | 14.5 µM (inactive) | 11.5 µM (inactive) | 4.59 µM (inactive) | 4.19 µM (inactive) | – | 6.64 µM (inactive) |
| N#C/C(C(=O)Nc1ccccc1)=C(/N)N1CCOCC1 | > 100 µM (inactive) | > 100 µM (inactive) | > 100 µM (inactive) | > 100 µM (inactive) | > 100 µM (inactive) | > 100 µM (inactive) | – | – | > 100 µM (inactive) | > 100 µM (inactive) | > 100 µM (inactive) | > 100 µM (inactive) | > 100 µM (inactive) | > 100 µM (inactive) | > 100 µM (inactive) | > 100 µM (inactive) | > 100 µM (inactive) | > 100 µM (inactive) | > 100 µM (inactive) |
